Data as given in patent US6472418B1, “Non-peptide NK1 receptors antagonists” (Warner-Lambert Company, priority 1998, dated 2002).

biological target: T1, Human NK1 Receptor (Homo sapiens, UniProt P25103); experiment: In Vitro Human NK1 Receptor Binding Assay ([125I]Bolton-Hunter substance P displacement, IM9 cells); settings: Human lymphoma IM9 cells, [125I]Bolton-Hunter substance P; Table 3, array-synthesis products; read-out: IC50 (nM) hNK1
T1 construct: endogenous in cells; host or cells: Human lymphoma IM9 cells (whole cells)
T1 sequence (P25103 whole entry): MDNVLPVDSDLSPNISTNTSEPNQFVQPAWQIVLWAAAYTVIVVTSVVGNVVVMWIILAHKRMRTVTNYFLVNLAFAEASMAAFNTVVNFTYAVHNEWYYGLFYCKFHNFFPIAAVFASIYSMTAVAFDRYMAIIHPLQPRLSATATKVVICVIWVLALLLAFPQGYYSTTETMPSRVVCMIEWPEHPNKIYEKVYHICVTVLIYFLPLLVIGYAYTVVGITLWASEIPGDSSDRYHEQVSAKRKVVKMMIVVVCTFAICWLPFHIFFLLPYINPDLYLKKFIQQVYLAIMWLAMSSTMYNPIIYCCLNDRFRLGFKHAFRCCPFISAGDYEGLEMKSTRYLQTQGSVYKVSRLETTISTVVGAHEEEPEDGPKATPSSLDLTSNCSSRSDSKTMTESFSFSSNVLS
Outline: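 Test compounds competed with 0.05-0.1 nM [125I]Bolton-Hunter substance P for binding to intact IM9 cells over 50 min at 21° C, pH 7.4 buffer with MnCl2 and peptidase inhibitors. […] [Sar9, Met(O2)11] substance P gave non-specific binding. Bound counts were measured after filtration and fitted iteratively.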

| Compound | IC50 |
| --- | --- |
| O=C(NC1Cc2ccccc2C1)C(Cc1c[nH]c2ccccc12)NCc1cc2ccccc2o1 (stereo not shown) [Example 239, 2-[(Benzofuran-2-ylmethyl)-amino]-N-indan-2-yl-3-(1H-indol-3-yl)-propionamide] | 243 nM |
| CCC(NC(=O)C(Cc1c[nH]c2ccccc12)NCc1cc2ccccc2o1)c1cccs1 (stereo not shown) [Example 196, 2-[(Benzofuran-2-ylmethyl)-amino]-3-(1H-indol-3-yl)-N-(1-thiophen-2-yl-propyl)-propionamide] | 92 nM |
| COc1ccc(CNC(=O)C(Cc2c[nH]c3ccccc23)NCc2cc3ccccc3o2)cc1 (stereo not shown) [Example 199, 2-[(Benzofuran-2-ylmethyl)-amino]-3-(1H-indol-3-yl)-N-(4-methoxy-benzyl)-propionamide] | 130 nM |
| O=C(NC1CCCCC1)C(Cc1c[nH]c2ccccc12)NCc1cc2ccccc2o1 (stereo not shown) [Example 276, 2-[(Benzofuran-2-ylmethyl)-amino]-N-cyclohexyl-3-(1H-indol-3-yl)-propionamide] | 655 nM |
| O=C(NCC1CCNC1)C(Cc1c[nH]c2ccccc12)NCc1cc2ccccc2o1 (stereo not shown) [Example 202, 2-[(Benzofuran-2-ylmethyl)-amino]-3-(1H-indol-3-yl)-N-pyrrolidin-3-ylmethyl-propionamide] | 2180 nM |

same assay, conditions: Table 4; [125I]Bolton-Hunter substance P displacement, human IM9 cells; read-out: IC50 (nM) hNK1

| Compound | IC50 |
| --- | --- |
| CC(NC(=O)C(C)(Cc1c[nH]c2ccccc12)NCC(Cc1ccccc1)c1ccccc1)c1ccccc1 (stereo not shown) [compound 332, 2-(2,3-Diphenyl-propylamino)-3-(1H-indol-3-yl)-2-methyl-N-(1-phenyl-ethyl)-propionamide] | 4940 nM |
| 2-(2,3-Diphenyl-allylamino)-3-(1H-indol-3-yl)-2-methyl-N-(1-phenyl-ethyl)-propionamide [compound 338] | > 10000 nM |
| CC(NC(=O)C(C)(Cc1c[nH]c2ccccc12)NCc1cnc2ccccc2c1)c1ccccc1 (stereo not shown) [compound 315, 3-(1H-Indol-3-yl)-2-methylN-(1-phenyl-ethyl)-2-[(quinolin-3-ylmethyl)-amino]-propionamide] | 1070 nM |
| CSc1ccc(CNC(C)(Cc2c[nH]c3ccccc23)C(=O)NC(C)c2ccccc2)cc1 (stereo not shown) [compound 345, 3-(1H-Indol-3-yl)-2-methyl-2-(4-methylsulfanyl-benzylamino)-N-(1-phenyl-ethyl)-propionamide] | 609 nM |
| COc1ccc2cc(CNC(C)(Cc3c[nH]c4ccccc34)C(=O)NC(C)c3ccccc3)oc2c1 (stereo not shown) [compound 319, 3-(1H-Indol-3-yl)-2-[(6-methoxy-benzofuran-2-ylmethyl)-amino]-2-methyl-N-(1-phenyl-ethyl)-propionamide] | 2100 nM |
| CC(NC(=O)C(C)(Cc1c[nH]c2ccccc12)NCc1ccc(-c2ccc([N+](=O)[O-])cc2)o1)c1ccccc1 (stereo not shown) [compound 353, 3-(1H-Indol-3-yl)-2-methyl-2-{[5-(4-nitro-phenyl)-furan-2-ylmethyl]-amino}-N-(1-phenyl-ethyl)-propionamide] | 13 nM |
| CC(NC(=O)C(C)(Cc1c[nH]c2ccccc12)NCc1cc2ccccc2o1)c1ccccc1 (stereo not shown) [compound 343, 2-[(Benzofuran-2-ylmethyl)-amino]-3-(1H-indol-3-yl)-2-methyl-N-(1-phenyl-ethyl)-propionamide] | 13 nM |

same assay, conditions: Table 5; [125I]Bolton-Hunter substance P displacement, human IM9 cells; read-out: IC50 (nM) hNK1

| Compound | IC50 |
| --- | --- |
| 2-(2,3-Diphenyl-allylamino)-3-(1H-indol-3-yl)-2-methyl-N-(1-phenyl-ethyl)-propionamide [compound 338] | > 10000 nM |
| CSc1ccc(CNC(Cc2c[nH]c3ccccc23)C(=O)NC(C)c2ccccc2)cc1 (stereo not shown) [compound 383] | 252 nM |
| CC(NC(=O)C(Cc1c[nH]c2ccccc12)NCc1coc2ccccc2c1=O)c1ccccc1 (stereo not shown) [compound 371] | > 10000 nM |
| CC(NC(=O)C(Cc1c[nH]c2ccccc12)NCc1ccoc1)c1ccccc1 (stereo not shown) [compound 402] | 881 nM |

same assay, conditions: human NK1 receptor, IM9 cells, [125I]Bolton-Hunter substance P; read-out: IC50 (nM) hNK1

| Compound | IC50 |
| --- | --- |
| Cc1ccc(CNC(=O)C(C)(Cc2c[nH]c3ccccc23)NCc2cc3ccccc3o2)cc1 (stereo not shown) [compound 71, 2-[(Benzofuran-2-ylmethyl)-amino]-3-(1H-indol-3-yl)-2-methyl-N-(4-methyl-benzyl)-propionamide] | 144 nM |
| CC(Cc1c[nH]c2ccccc12)(NCc1cc2ccccc2o1)C(=O)NCC(C)(C)c1ccccc1 (stereo not shown) [compound 133, 2-[(Benzofuran-2-ylmethyl)-amino]-3-(1H-indol-3-yl)-2-methyl-N-(2-methyl-2-phenyl-propyl)-propionamide] | 4480 nM |
| CC(Cc1c[nH]c2ccccc12)(NCc1cc2ccccc2o1)C(=O)NCC1(c2cccnc2)CCC1 (stereo not shown) [compound 159, 2-[(Benzofuran-2-ylmethyl)-amino]-3-(1H-indol-3-yl)-2-methyl-N-(1-pyridin-3-yl-cyclobutylmethyl)-propionamide] | 3760 nM |
| CC(Cc1c[nH]c2ccccc12)(NCc1cc2ccccc2o1)C(=O)NCc1ccc(F)cc1 (stereo not shown) [compound 61, 2-[(Benzofuran-2-ylmethyl)-amino]-N-(4-fluoro-benzyl)-3-(1H-indol-3-yl)-2-methyl-propionamide] | 61 nM |
| COc1ccc(CNC(=O)C(C)(Cc2c[nH]c3ccccc23)NCc2cc3ccccc3o2)c(N)c1 (stereo not shown) [compound 188, N-(2-Amino-4-methoxy-benzyl)-2-[(benzofuran-2-ylmethyl)-amino]-3-(1H-indol-3-yl)-2-methyl-propionamide] | 2280 nM |
| CC(Cc1c[nH]c2ccccc12)(NCc1cc2ccccc2o1)C(=O)NCc1ccc(O)c(O)c1 (stereo not shown) [compound 182, 2-[(Benzofuran-2-ylmethyl)-amino]-N-(3,4-dihydroxy-benzyl)-3-(1H-indol-3-yl)-2-methyl-propionamide] | > 10000 nM |
| CC(Cc1c[nH]c2ccccc12)(NCc1cc2ccccc2o1)C(=O)NCc1ccc(F)cc1F (stereo not shown) [compound 181, 2-[(Benzofuran-2-ylmethyl)-amino]-N-(2,4-difluoro-benzyl)-3-(1H-indol-3-yl)-2-methyl-propionamide] | 269 nM |
| CC(Cc1c[nH]c2ccccc12)(NCc1cc2ccccc2o1)C(=O)NCCN1CCNCC1 (stereo not shown) [compound 147, 2-[(Benzofuran-2-ylmethyl)-amino]-3-(1H-indol-3-yl)-2-methyl-N-(2-piperazin-1-yl-ethyl)-propionamide] | > 10000 nM |
| CC(Cc1c[nH]c2ccccc12)(NCc1cc2ccccc2o1)C(=O)NCc1cccc(F)c1 (stereo not shown) [compound 166, 2-[(Benzofuran-2-ylmethyl)-amino]-N-(3-fluoro-benzyl)-3-(1H-indol-3-yl)-2-methyl-propionamide] | 37 nM |
| CC(Cc1c[nH]c2ccccc12)(NCc1cc2ccccc2o1)C(=O)NC1(CN2CCCCC2)CCCCC1 (stereo not shown) [compound 89, 2-[(Benzofuran-2-ylmethyl)-amino]-3-(1H-indol-3-yl)-2-methyl-N-(1-piperidin-1-ylmethyl-cyclohexyl)-propionamide] | 6740 nM |
| CC(Cc1c[nH]c2ccccc12)(NCc1cc2ccccc2o1)C(=O)NCc1cccc(Cl)c1 (stereo not shown) [compound 77, 2-[(Benzofuran-2-ylmethyl)-amino]-N-(3-chloro-benzyl)-3-(1H-indol-3-yl)-2-methyl-propionamide] | 17 nM |
| CC(Cc1c[nH]c2ccccc12)(NCc1cc2ccccc2o1)C(=O)NCC(C)(C)N1CCCCC1 (stereo not shown) [compound 131, 2-[(Benzofuran-2-ylmethyl)-amino]-3-(1H-indol-3-yl)-2-methyl-N-(2-methyl-2-piperidin-1-yl-propyl)-propionamide] | > 10000 nM |
| CC(Cc1c[nH]c2ccccc12)(NCc1cc2ccccc2o1)C(=O)NCc1ccc([N+](=O)[O-])o1 (stereo not shown) [compound 100, 2-[(Benzofuran-2-ylmethyl)-amino]-3-(1H-indol-3-yl)-2-methyl-N-(5-nitro-furan-2-ylmethyl)-propionamide] | 390 nM |
| CC1(CNC(=O)C(C)(Cc2c[nH]c3ccccc23)NCc2cc3ccccc3o2)CCCO1 (stereo not shown) [compound 136, 2-[(Benzofuran-2-ylmethyl)-amino]-3-(1H-indol-3-yl)-2-methyl-N-(2-methyl-tetrahydro-furan-2-ylmethyl)-propionamide] | > 10000 nM |
| CC1(CNC(=O)C(C)(Cc2c[nH]c3ccccc23)NCc2cc3ccccc3o2)OCCO1 (stereo not shown) [compound 126, 2-[(Benzofuran-2-ylmethyl)-amino]-3-(1H-indol-3-yl)-2-methyl-N-(2-methyl-[1,3]dioxolan-2-ylmethyl)-propionamide] | 6790 nM |
| CC(Cc1c[nH]c2ccccc12)(NCc1cc2ccccc2o1)C(=O)NCC(O)c1ccccc1 (stereo not shown) [compound 73, 2-[(Benzofuran-2-ylmethyl)-amino]-N-(2-hydroxy-2-phenyl-ethyl)-3-(1H-indol-3-yl)-2-methyl-propionamide] | 1230 nM |
| CC(Cc1c[nH]c2ccccc12)(NCc1cc2ccccc2o1)C(=O)NCc1ccc(F)c(Cl)c1 (stereo not shown) [compound 191, 2-[(Benzofuran-2-ylmethyl)-amino]-N-(3-chloro-4-fluoro-benzyl)-3-(1H-indol-3-yl)-2-methyl-propionamide] | 55 nM |
| CC(Cc1c[nH]c2ccccc12)(NCc1cc2ccccc2o1)C(=O)NCC1Cc2ccccc2CN1 (stereo not shown) [compound 108, 2-[(Benzofuran-2-ylmethyl)-amino]-3-(1H-indol-3-yl)-2-methyl-N-(1,2,3,4-tetrahydro-isoquinolin-3-ylmethyl)-propionamide] | 4570 nM |
| COc1ccc(CNC(=O)C(C)(Cc2c[nH]c3ccccc23)NCc2cc3ccccc3o2)cc1 (stereo not shown) [compound 68, 2-[(Benzofuran-2-ylmethyl)-amino]-3-(1H-indol-3-yl)-N-(4-methoxy-benzyl)-2-methyl-propionamide] | 312 nM |
| CC(Cc1c[nH]c2ccccc12)(NCc1cc2ccccc2o1)C(=O)NCc1cccc(C(F)(F)F)c1 (stereo not shown) [compound 74, 2-[(Benzofuran-2-ylmethyl)-amino]-3-(1H-indol-3-yl)-2-methyl-N-(3-trifluoromethyl-benzyl)-propionamide] | 12 nM |
| CC(Cc1c[nH]c2ccccc12)(NCc1cc2ccccc2o1)C(=O)NCCCn1ccnc1 (stereo not shown) [compound 134, 2-[(Benzofuran-2-ylmethyl)-amino]-N-(3-imidazol-1-yl-propyl)-3-(1H-indol-3-yl)-2-methyl-propionamide] | 5370 nM |
